The values below are quoted from earlier work in patent US20210205361A1, “COMPOSITIONS AND METHODS FOR CANCER IMMUNOTHERAPY” (priority 2016, published 2021).

Data set [1] deals with diffuse large B-cell lymphoma (DLBCL).
Data set [2] deals with advanced, treatment-refractory malignancies. The conditions noted are these: subjects with non-small cell lung cancer (NSCLC).
The test system of another data set is recurrent multifocal GBM. The conditions noted are these: two pediatric patients refractory to standard therapies.

In the case of “CT-011: humanized IgG1 monoclonal antibody against PD-1”, the “subjects progression-free at the end of the follow-up period” value in data set [1] (DLBCL subjects after autologous stem cell transplantation, control group 47%) was 70%. Also, the subjects alive in data set [1] (DLBCL subjects after autologous stem cell transplantation, control group 62%) is given as 82%. Moreover, in data set [1] (finding of the phase II trial), the “activity of natural killer cells” value is on record as “augments”.
With “BMS-936558: fully human IgG4 monoclonal antibody targeting PD-1”, the clinical activity entry in data set [2] is given as “substantial clinical activity”.
Regarding “nivolumab: immune checkpoint inhibitor, anti-PD1 antibody”, the response result with recurrent multifocal GBM was “remarkable and durable responses”.
